Source: patent US8795222B2, “Device and method for treatment of surface infections with nitric oxide” (Pulmonox Technologies Corp., priority 2000, dated 2014)

Tests used:
P. aeruginosa = assay: gNO dose study, colony growth on agar plates; format: cell-based
Experimental: FIG. 7 depicts a Pseudomonas aeruginosa dosage curve for exposure to NO gas with bacteria grown on solid media. Relative percentages of growth of P. aeruginosa colony forming units (cfu) at 50, 80, 120 and 160 parts per million (ppm) of nitric oxide compared with growth of P. aeruginosa cfu in medical air (100%) are shown.
To study the effects of gaseous nitric oxide on potential pathogens, a custom gas exposure incubator was designed and validated for temperature, humidity, and gas concentrations, providing an environment that matches that of a microbiologic incubator, while enabling controlled exposure of precise concentrations of the gas. […] The gNO chamber allowed control and adjustment of following factors in all in vitro studies: gNO dose, total air flow, NO2 levels, O2 levels, CO2 levels, temperature, and humidity. For the initial pilot studies, two strains of bacterial pathogen were selected based on two proposed clinical applications of gNO for respiratory infections and topical application. P. aeruginosa is associated primarily with pulmonary disease, but may also be associated with skin infection such as in severe burns. S. aureus is associated with surface wound infections. Both of these micro-organisms were chosen for the pilot study.
The first step in the process of evaluating the direct effect of gNO on bacteria was to design a simple study to determine what dose, if any, would be an approximate lethal concentration level for microbes. Once an optimal dose was estimated, then a timing study would be conducted. For these initial studies, highly dense inoculums of P. aeruginosa and S. aureus suspensions (10^8 cfu/ml) were plated onto agar plates. These plates were then exposed to various concentrations of gNO in the exposure device in order to evaluate the effect on colony growth.

Group B Streptococci = assay: Bacteriocidal time study, 200 ppm gNO, saline suspension; format: cell-based, Group B Streptococcus
Experimental: Following the dose and time ranging studies, a series of experiments were performed to determine the time required to effectively induce a bacteriocidal effect with 200 parts per million of gNO, a concentration just above the dose used in the dose-ranging study, on a representative collection of drug resistant gram-positive and gram-negative strains of bacteria associated with clinical infection. A successful bacteriocidal effect was defined as a decrease in bacteria greater than 3 log10 cfu/ml. Further, C. albicans, Methicillin Resistant S. aureus (MRSA), a particularly resistant strain of P. aeruginosa from a cystic fibrosis patient, Group B Streptococcus, and M. smegmatis were also included to see if yeast, multi-drug resistant strains of bacteria, and actinomycetes have a similar response. The drug-resistant bacteria represent a variety of pathogens that contribute to both respiratory and wound infections.
For these experiments, saline was selected as a suspension media because it would not mask the direct effect of gNO as a bacteriocidal, whereas fully supplemented growth medium might introduce external variables (e.g., buffer or react with gNO). Other media might also provide metabolites and replenish nutrients that produce enzymes that protect bacteria from oxidative and nitrosative damage, thereby masking the effect of gNO. […] In saline, the colonies were static but remained viable. This is similar to the approach of Webert and Jean's use of animal models. Webert K E, et al (2000), Effects of inhaled nitric oxide in a rat model of Pseudomonas aeruginosa pneumonia, Crit. Care Med, 28(7):2397-2405 and Jean D, et al., (2002) Beneficial effects of nitric oxide inhalation on pulmonary bacterial clearance, Critical Care Medicine. 30(2):442-7.
The latent period was then followed by an abrupt death of all cells. Gram negative and gram positive bacteria, antibiotic resistant bacterial strains, yeast and mycobacteria were all susceptible to 200 ppm gNO. Of importance, is the observation that the two drug resistant bacteria strains were also susceptible.

[1] = system: full thickness infected wound; assay: Histology of full thickness infected wound biopsies; format: in vivo, rabbits; settings: 200 ppm gNO
Experimental: FIG. 13 illustrates histology analysis of full thickness infected wound exposed to 200 ppm gNO for 24 hours.
In vivo studies in animal models have further shown the beneficial effects of nitric oxide gas. In an animal model, full-thickness cutaneous wounds (Set A: four rabbits with eight 8.0 mm punch biopsies & Set B: 4 rabbits with two 50×15 mm wounds) were made on each side of dorsal midline and infected with equal volume of Staphylococcus aureus suspension on day zero. On day one, treated groups in A and B were respectively exposed to 200 and 400 ppm gNO for total of three days. Set A was exposed for two 4-hour sessions, interrupted by 1-hour of rest, inside a specialized restraining exposure chamber. A 24-hour continuous delivery model was used for animals in Set B by design of a specialized wound patch. Control groups were only exposed to medical grade air with corresponding flow rate. Four random sample punch biopsies (8.0 mm) were collected on post wounding days 3 and analyzed for bacterial content. Another four punch biopsies from both wound and normal skin tissue were collected for fibroblast viability analysis and toxic effects of gNO.
FIG. 13 presents histological analysis of tissue blocks prepared on wound punch biopsies from animals in treated and control groups. Samples from the control group show more advanced neutrophil infiltration and so a higher degree of inflammatory reaction. […] Wounds treated with gNO also show a layer of scab closing on the wound, but control wounds remain open for longer period of time.

[N]=O [gNO, nitric oxide]
colony size and number after transfer to a conventional incubator (P. aeruginosa; 24 hours after gNO exposure, controls overgrew): remained the same in size and number | time required to achieve the >90% reduction of colony formation (P. aeruginosa; gNO greater than 120 ppm, agar plates): 8 to 12 h | reduction of colony formation (P. aeruginosa; gNO greater than 120 ppm, agar plates, compared with medical air): greater than 90% | survival (P. aeruginosa; increasing gNO to 120 ppm, agar plates): 5-10% | LD100 (Group B Streptococci): 2 h | Latent Period* (Group B Streptococci): 1 h | −2.5 Log10 (Group B Streptococci; time to −2.5 log10 cfu/ml): 1.5 hrs | toxic effects (cellular debris due to apoptosis), histology [1]: No toxic effects | healing process, histology ([1]; compared with control wounds): healthier healing process | neutrophil infiltration in wound ([1]; compared with control wounds): lower level of neutrophil concentration
